From patent US10905736B2, “Ezetimibe-associated ApoA-I mimetic peptides showing enhanced synergism” (The Regents of the University of California, priority 2016, dated 2021)
“Also recorded” adds a separate entry of the source.

Tests used:
LDLR null mice [1] = experiment: Plasma Serum Amyloid A (SAA) levels in LDLR null mice fed Western diet for two weeks; assay type: in vivo, mouse; conditions: statement over the experiments of Example 3 (single agents four out of four, Combined Formulation three out four, Novel Method three out three experiments)
Description: The plasma from the mice in FIG. 1 was analyzed for SAA as described as described (see, e.g., Chattopadhyay et al. (2015) Pharma. Res. Per. 3: e00154; Chattopadhyay et al. (2016) J. Lipid. Res. 57: 832-847).
Female LDLR null mice age 5-8 months (n=20 per group) were fed standard mouse chow (Chow) or a Western diet high in cholesterol and fat (WD) or were fed WD+0.06% by weight of a freeze-dried concentrate of transgenic tomatoes expressing the apoA-I mimetic peptide 6F, which was prepared as previously described (see, e.g., Chattopadhyay et al. (2015) Pharma. Res. Per. 3: e00154; Chattopadhyay et al. (2016) J. Lipid Res. 57: 832-847; PCT Pub. Nos: WO 2013/148214 (PCT/US2013/031037), WO 2015/175968 (PCT/US2015/031134)) (Tg6F), or the mice were fed WD with Ezetimibe added to give a daily dose of 10 mg/kg body weight/day (WD+Ezetimibe), or the mice were fed WD with Tg6F added at 0.06% by weight plus Ezetimibe (each added separately to the diet) to give a daily dose of Ezetimibe of 10 mg/kg body weight; the Tg6F and Ezetimibe were mixed into WD as described previously (Chattopadhyay et al. (2016) J. Lipid. […] After feeding the diets for two weeks, the mice were bled and total plasma cholesterol levels were determined as described (Id.). […]

LDLR null mice [2] = experiment: Plasma lysophosphatidylcholine (LysoPC) levels in LDLR null mice fed Western diet for two weeks; assay type: in vivo, mouse; conditions: female LDLR null mice age 4-7 months, WD two weeks, Tg6F 0.06% by weight, Ezetimibe 10 mg/kg/day
Description: After feeding the diets for two weeks the mice were bled and plasma lipid levels, plasma levels of lysophosphatidylcholine (LysoPC), and plasma levels of Serum Amyloid A (SAA) were determined as described in Example 3 Methods. Panel A) Plasma total cholesterol levels. Panel B) The decrease in plasma cholesterol compared to WD for each treatment. Panel C) Plasma triglyceride levels. Panel D) The decrease in plasma triglycerides compared to WD for each treatment. Panel E) Plasma HDL-Cholesterol levels. Panel F) The Increase in plasma HDL-Cholesterol compared to WD for each treatment. Panel G) Plasma LysoPC 18:0 levels. Panel H) The decrease in plasma LysoPC 18:0 levels compared to WD for each treatment. Panel I) Plasma LysoPC 18:1 levels. Panel J) The decrease in plasma LysoPC 18:1 levels compared to WD for each treatment. Panel K) Plasma LysoPC 20:4 levels. Panel L) The decrease in plasma LysoPC 20:4 levels compared to WD for each treatment. Panel M) Plasma SAA levels. Panel N) The decrease in plasma SAA levels compared to WD for each treatment. The data shown are Mean±SEM. NS=Not significant.
In experiments in which Tg6F or EV or Ezetimibe were administered as single agents, the EV or Tg6F concentrate was added to WD at 0.06% by weight or Ezetimibe was added to WD to give a final dose of 10 mg/kg body weight/day. The EV or Tg6F concentrate or Ezetimibe was mixed into the diets as described (Chattopadhyay et al. (2015) Pharma. Res. Per. 3: e00154). In experiments in which the EV or Tg6F concentrates and Ezetimibe were both added to WD, each was added separately to WD at the same dose as used for the single agents, and each was mixed into the diet as described (Id.). […]
Plasma lipids, and serum amyloid A (SAA) levels were determined and LC-MS/MS was performed as described (Navab et al. (2012) J. Lipid Res. 53: 437-446; Chattopadhyay et al. (2016) J. Lipid Res. 57: 832-847; Chattopadhyay et al. (2015) Pharma. Res. Per. 3: e00154). […]

## O=C1[C@H](CC[C@H](O)c2ccc(F)cc2)[C@@H](c2ccc(O)cc2)N1c1ccc(F)cc1 [Ezetimibe, (3R,4S)-1-(4-fluorophenyl)-3-[(3S)-3-(4-fluorophenyl)-3-hydroxypropyl]-4-(4-hydroxyphenyl)azetidin-2-one]
LDLR null mice [1]
  plasma SAA levels: equally effective; also recorded: significantly decreased the levels
LDLR null mice [2]; FIG. 16 G-H
  plasma LysoPC 18:0 levels: failed to significantly alter plasma levels of LysoPC 18:0
LDLR null mice [2]; FIG. 16 I-J
  plasma LysoPC 18:1 levels: significantly decreased plasma levels of LysoPC 18:1
LDLR null mice [2]; FIG. 16 K-L
  plasma LysoPC 20:4 levels: significantly reduced plasma levels of LysoPC 20:4
